# Source: US10435392B2, “Bipyrazole derivatives as JAK inhibitors” (Incyte Corporation, priority 2013, dated 2019)
# Counter-ions that a name gives are not always drawn.
# Test system: human JAK1
# Assay: In vitro JAK kinase assay (HTRF, phosphorylation of a biotinylated peptide), JAK1
# Assay type: biochemical
# Settings: ratio of IC50 values at 1 mM ATP
# Description: The catalytic activity of JAK1, JAK2 or JAK3 was assayed by measuring the phosphorylation of a biotinylated peptide. The phosphorylated peptide was detected by homogenous time resolved fluorescence (HTRF). […] Reactions were carried out at room temperature for 1 hour and then stopped with 20 μL 45 mM EDTA, 300 nM SA-APC, 6 nM Eu-Py20 in assay buffer (Perkin Elmer, Boston, Mass.). Binding to the Europium labeled antibody took place for 40 minutes and HTRF signal was measured on a Fusion plate reader (Perkin Elmer, Boston, Mass.).
row,Structure (SMILES),JAK2/JAK1
1,"Cc1[nH]ncc1-c1cnn(C2(CC#N)CN(c3cnc(C(=O)N[C@@H](C)C(F)(F)F)cn3)C2)c1 [Example 1, 5-[3-(Cyanomethyl)-3-(3′-methyl-1H,1′H-4,4′-bipyrazol-1-yl)azetidin-1-yl]-N-[(1S)-2,2,2-trifluoro-1-methylethyl]pyrazine-2-carboxamide trifluoroacetate]",>10
2,"Cc1n[nH]cc1-c1cnn(C2(CC#N)CN(c3cnc(C(=O)NC(C)C)cn3)C2)c1 [Example 2, 5-[3-(Cyanomethyl)-3-(3′-methyl-1H,1′H-4,4′-bipyrazol-1-yl)azetidin-1-yl]-N-isopropylpyrazine-2-carboxamide Trifluoroacetate]",>10
3,"Cc1n[nH]cc1-c1cnn(C2(CC#N)CN(c3ccc(C(=O)NC(C)C)cc3)C2)c1 [Example 3, 4-[3-(Cyanomethyl)-3-(3′-methyl-1H,1′H-4,4′-bipyrazol-1-yl)azetidin-1-yl]-N-isopropylbenzamide Trifluoroacetate]",>10
4,"C[C@H](NC(=O)c1cc(F)c(N2CC(CC#N)(n3cc(-c4cn[nH]c4)cn3)C2)cc1F)C(F)(F)F [Example 5, 4-[3-(1H,1′H-4,4′-Bipyrazol-1-yl)-3-(cyanomethyl)azetidin-1-yl]-2,5-difluoro-N-[(1S)-2,2,2-trifluoro-1-methylethyl]benzamide Trifluoroacetate]",>10
5,"Cc1n[nH]cc1-c1cn(C2(CC#N)CN(c3cnc(C(=O)NC(C)C)cn3)C2)nc1C [Example 6, 5-[3-(Cyanomethyl)-3-(3,3′-dimethyl-1H,1′H-4,4′-bipyrazol-1-yl)azetidin-1-yl]-N-isopropylpyrazine-2-carboxamide Trifluoroacetate]",>10

# Next, values leading:
row,JAK2/JAK1,Structure (SMILES)
1,>10,"Cc1n[nH]c(C)c1-c1cnn(C2(CC#N)CN(c3cnc(C(=O)N[C@@H](C)C(F)(F)F)cn3)C2)c1 [Example 9, 5-[3-(Cyanomethyl)-3-(3′,5′-dimethyl-1H,1′H-4,4′-bipyrazol-1-yl)azetidin-1-yl]-N-[(1S)-2,2,2-trifluoro-1-methylethyl]pyrazine-2-carboxamide Trifluoroacetate]"
2,>10,"Cc1n[nH]cc1-c1cn(C2(CC#N)CN(c3cc(F)c(C(=O)N[C@@H](C)C(F)(F)F)cc3F)C2)nc1CO [Example 13, 4-{3-(Cyanomethyl)-3-[3-(hydroxymethyl)-3′-methyl-1H,1′H-4,4′-bipyrazol-1-yl]azetidin-1-yl}-2,5-difluoro-N-[(1S)-2,2,2-trifluoro-1-methylethyl]benzamide]"
